Reference: PubChem BioAssay AID298 (DTP/NCI, 2004)
Several values for one entry are separate records, joined by “and”; a condition that tells them apart may be missing. Equal values may be shown once. Records with an inconclusive call do not appear.

Tested on: MX-1 breast xenograft, intrarenal, nude mice, tumor weight
Test: NCI In Vivo Anticancer Drug Screen. Data for tumor model Human Mammary Carcinoma MX-1 Xenograft (intrarenal inoculation) in NU/NU BALB/C (nude) mice
Conditions: endpoint: mean tumor weight change, higher = larger tumour
Summary of the method: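 Antitumor activity is expressed as a T/C ratio. The treated group's tumor size or survival is compared against the vehicle-treated control group in mice bearing transplanted tumors.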

[1] = dose: 300.0 mg/kg/injection, schedule: Q04DX003 (sc), vehicle: saline with Tween-80
[2] = dose: 75.0 mg/kg/injection, schedule: Q04DX003 (ip), vehicle: saline
[3] = dose: 150.0 mg/kg/injection, schedule: Q04DX003 (ip), vehicle: saline
[4] = dose: 300.0 mg/kg/injection, schedule: Q04DX003 (ip), vehicle: saline with Tween-80
[5] = dose: 600.0 mg/kg/injection, schedule: Q04DX003 (ip), vehicle: saline with Tween-80
[6] = dose: 300.0 mg/kg/injection, schedule: Q04DX003 (ip), vehicle: saline

CN1CCN(c2ccc([N+](=O)[O-])c3no[n+]([O-])c23)CC1
T/C (dose: 37.5 mg/kg/injection, schedule: Q04DX003 (sc), vehicle: saline with Tween-80): 117 % of control | T/C (dose: 75.0 mg/kg/injection, schedule: Q04DX003 (sc), vehicle: saline with Tween-80): 83 % of control | T/C (dose: 150.0 mg/kg/injection, schedule: Q04DX003 (sc), vehicle: saline with Tween-80): 72 % of control

OC1(CSc2ccccc2)CCCCC1
T/C [1]: 98 % of control | T/C (dose: 600.0 mg/kg/injection, schedule: Q04DX003 (sc), vehicle: saline with Tween-80): 112 % of control

Nc1ccn([C@@H](C=O)C[C@@H](C=O)CO)c(=O)n1
T/C [2]: 76 % of control | T/C [3]: 124 % of control

C=CC(=O)N1CN(C(=O)C=C)CN(C(=O)C=C)C1
T/C (dose: 6.25 mg/kg/injection, schedule: Q01DX010 (sc), vehicle: saline with Tween-80): 116 % of control | T/C (dose: 12.5 mg/kg/injection, schedule: Q01DX010 (sc), vehicle: saline with Tween-80): 179 % of control

CCN(CC)CCC(=O)OC(C(=O)O[C@H]1C[C@@]2(O)C(OC(=O)c3ccccc3)C3C4(OC(C)=O)COC4C[C@H](O)[C@@]3(C)C(=O)[C@H](OC(C)=O)C(=C1C)C2(C)C)C(NC(=O)c1ccccc1)c1ccccc1 (stereo not given in full)
T/C (dose: 4.5 mg/kg/injection, schedule: Q01DX009 (ip), vehicle: water): -100 % of control | T/C (dose: 9.0 mg/kg/injection, schedule: Q01DX009 (ip), vehicle: water): -100 % of control | T/C (dose: 18.0 mg/kg/injection, schedule: Q01DX009 (ip), vehicle: water): -100 % of control

CSCCC(N)C(=O)O (stereo not given)
T/C [4]: 101 % of control | T/C [5]: 85 % of control and 105 % of control | T/C (dose: 1200.0 mg/kg/injection, schedule: Q04DX003 (ip), vehicle: saline with Tween-80): 102 % of control and 112 % of control | T/C (dose: 2400.0 mg/kg/injection, schedule: Q04DX003 (ip), vehicle: saline with Tween-80): 91 % of control and 106 % of control

O=C(O)CC(=O)O.[NH-]CC[NH-].[Pt+2]
T/C (dose: 25.0 mg/kg/injection, schedule: Q01DX010 (sc), vehicle: dextrose): -6 % of control | T/C (dose: 50.0 mg/kg/injection, schedule: Q01DX010 (sc), vehicle: dextrose): -85 % of control

NNC(=O)c1ccncc1
T/C (dose: 150.0 mg/kg/injection, schedule: Q04DX003 (sc), vehicle: saline): 123 % of control

O=C(O)c1ccc(C(=O)O)c(C(=O)O)c1.[NH-]C1CCCCC1[NH-].[Pt+2]
T/C (dose: 3.12 mg/kg/injection, schedule: Q01DX010 (sc), vehicle: sodium bicarbonate): 74 % of control | T/C (dose: 6.25 mg/kg/injection, schedule: Q01DX010 (sc), vehicle: sodium bicarbonate): 40 % of control | T/C (dose: 12.5 mg/kg/injection, schedule: Q01DX010 (sc), vehicle: sodium bicarbonate): 6 % of control

COc1cccc2c1C(=O)C1=C(C2=O)c2c(O)cc(CO)cc2C(O)C1O (stereo not given)
T/C (dose: 6.25 mg/kg/injection, schedule: Q04DX003 (ip), vehicle: other): 84 % of control | T/C (dose: 12.5 mg/kg/injection, schedule: Q04DX003 (ip), vehicle: other): 102 % of control | T/C (dose: 25.0 mg/kg/injection, schedule: Q04DX003 (ip), vehicle: other): 96 % of control

CCCCCCCC(=O)O[C@H]1[C@H]2[C@@H](CC1(C)C)C(=O)[C@]13O[C@H]1C(=O)[C@]1(CO1)[C@]23C
T/C (dose: 5.0 mg/kg/injection, schedule: Q04DX003 (ip), vehicle: saline with Tween-80): 100 % of control | T/C (dose: 10.0 mg/kg/injection, schedule: Q04DX003 (ip), vehicle: saline with Tween-80): 96 % of control | T/C (dose: 20.0 mg/kg/injection, schedule: Q04DX003 (ip), vehicle: saline with Tween-80): 80 % of control

NC(CCl)=NCC12CC3CC(CC(C3)C1)C2
T/C (dose: 37.5 mg/kg/injection, schedule: Q04DX003 (sc), vehicle: Klucel (hydroxypropylcellulose) (HPC)): 102 % of control | T/C (dose: 75.0 mg/kg/injection, schedule: Q04DX003 (sc), vehicle: Klucel (hydroxypropylcellulose) (HPC)): 104 % of control

CNc1nc(NC)nc(NC)n1
T/C (dose: 12.5 mg/kg/injection, schedule: Q01DX010 (sc), vehicle: Klucel (hydroxypropylcellulose) (HPC)): 156 % of control | T/C (dose: 25.0 mg/kg/injection, schedule: Q01DX010 (sc), vehicle: Klucel (hydroxypropylcellulose) (HPC)): 152 % of control | T/C (dose: 50.0 mg/kg/injection, schedule: Q01DX010 (sc), vehicle: Klucel (hydroxypropylcellulose) (HPC)): 122 % of control | T/C (dose: 100.0 mg/kg/injection, schedule: Q01DX010 (sc), vehicle: Klucel (hydroxypropylcellulose) (HPC)): 83 % of control

CNc1n[n+](-c2ccccc2)no1
T/C (dose: 18.25 mg/kg/injection, schedule: Q04DX003 (sc), vehicle: water): 88 % of control | T/C (dose: 37.5 mg/kg/injection, schedule: Q04DX003 (sc), vehicle: water): 81 % of control | T/C (dose: 75.0 mg/kg/injection, schedule: Q04DX003 (sc), vehicle: water): 91 % of control

COC1=C(C)C(=O)C2=C(C1=O)C(CO)N1C(C#N)C3CC4C(C1C2N1CCOC41)N3C (stereo not given)
T/C (dose: 0.9 mg/kg/injection, schedule: Q04DX003 (ip), vehicle: acid diluted with saline): 55 % of control | T/C (dose: 1.25 mg/kg/injection, schedule: Q04DX003 (ip), vehicle: acid diluted with saline): 35 % of control | T/C (dose: 1.5 mg/kg/injection, schedule: Q04DX003 (ip), vehicle: acid diluted with saline): 19 % of control | T/C (dose: 2.5 mg/kg/injection, schedule: Q04DX003 (ip), vehicle: acid diluted with saline): 17 % of control and 19 % of control | T/C (dose: 2.5 mg/kg/injection, schedule: Q04DX003 (ip), vehicle: saline + alcohol): 50 % of control | T/C (dose: 5.0 mg/kg/injection, schedule: Q04DX003 (ip), vehicle: saline + alcohol): 42 % of control

[N-]=[N+]=[N-]
T/C (dose: 1.5 mg/kg/injection, schedule: Q04DX003 (ip), vehicle: water): 66 % of control | T/C (dose: 6.0 mg/kg/injection, schedule: Q04DX003 (ip), vehicle: water): 66 % of control | T/C (dose: 12.0 mg/kg/injection, schedule: Q04DX003 (ip), vehicle: water): 64 % of control

CC1C(c2ccccc2)OC(N2CCOCC2)C(C)(C)CN1C (stereo not given)
T/C (dose: 150.0 mg/kg/injection, schedule: Q04DX003 (ip), vehicle: saline with Tween-80): 112 % of control | T/C [4]: 101 % of control | T/C [5]: 82 % of control

C[n+]1c(/C=N/NC(N)=S)ccc2ccccc21
T/C [1]: 78 % of control

CN=NN(C)C(=O)NC
T/C (dose: 37.5 mg/kg/injection, schedule: Q04DX003 (ip), vehicle: saline): 112 % of control | T/C [2]: 79 % of control | T/C (dose: 108.0 mg/kg/injection, schedule: Q04DX003 (ip), vehicle: saline): 2 % of control | T/C [3]: 15 % of control | T/C (dose: 180.0 mg/kg/injection, schedule: Q04DX003 (ip), vehicle: saline with Tween-80): 108 % of control | T/C [6]: -13 % of control | T/C (dose: 500.0 mg/kg/injection, schedule: Q04DX003 (ip), vehicle: saline with Tween-80): 124 % of control

Cc1cc(=NO)cc(C)n1O
T/C (dose: 300.0 mg/kg/injection, schedule: Q04DX003 (sc), vehicle: distilled water + alcohol): 116 % of control | T/C (dose: 1200.0 mg/kg/injection, schedule: Q04DX003 (sc), vehicle: distilled water + alcohol): 90 % of control | T/C (dose: 2400.0 mg/kg/injection, schedule: Q04DX003 (sc), vehicle: distilled water + alcohol): 89 % of control

CN(CN1C(=O)CCC1=O)CN1C(=O)CCC1=O
T/C [3]: 91 % of control | T/C [6]: 61 % of control

Oc1cc(O)cc(/C=C/c2ccc(O)c(O)c2)c1
T/C (dose: 25.0 mg/kg/injection, schedule: Q04DX003 (ip), vehicle: DMSO): 90 % of control | T/C (dose: 37.5 mg/kg/injection, schedule: Q04DX003 (ip), vehicle: DMSO): 123 % of control | T/C (dose: 50.0 mg/kg/injection, schedule: Q04DX003 (ip), vehicle: DMSO): 69 % of control | T/C (dose: 75.0 mg/kg/injection, schedule: Q04DX003 (ip), vehicle: DMSO): 71 % of control | T/C (dose: 100.0 mg/kg/injection, schedule: Q04DX003 (ip), vehicle: DMSO): 48 % of control | T/C (dose: 150.0 mg/kg/injection, schedule: Q04DX003 (ip), vehicle: DMSO): 67 % of control

ClCCCN1CCCCC1CCl (stereo not given)
T/C (dose: 6.25 mg/kg/injection, schedule: Q04DX003 (sc), vehicle: saline): 53 % of control | T/C (dose: 12.5 mg/kg/injection, schedule: Q04DX003 (sc), vehicle: saline): 3 % of control | T/C (dose: 25.0 mg/kg/injection, schedule: Q04DX003 (sc), vehicle: saline): -13 % of control

CC(C)(O)/C=C/C(=O)[C@](C)(O)[C@H]1[C@H](O)C[C@@]2(C)[C@@H]3CC=C4[C@@H](C=C(O)C(=O)C4(C)C)[C@]3(C)C(=O)C[C@]12C
T/C (dose: 0.25 mg/kg/injection, schedule: Q04DX003 (ip), vehicle: water): 155 % of control | T/C (dose: 0.5 mg/kg/injection, schedule: Q04DX003 (ip), vehicle: water): 118 % of control | T/C (dose: 1.0 mg/kg/injection, schedule: Q04DX003 (ip), vehicle: water): 122 % of control | T/C (dose: 2.0 mg/kg/injection, schedule: Q04DX003 (ip), vehicle: water): 86 % of control
